Tests used:
[1] = test system: SARS-CoV-2 omicron variant B.1.1.529; assay: microbe, parasite or virus in culture; assay type: cell-based; details: Severe acute respiratory syndrome coronavirus 2, Vero C1008, 48 h
[2] = mouse, in vivo

SMILES | IC50 [1] [µM] | weight loss at 3 DPI compared to water control [2]
CC(N)C12CC3CC(CC(C3)C1)C2 (stereo not shown) [rimantadine] | 17.8 | –
NC12CC3CC(CC(C3)C1)C2 [amantadine] | 106 | significant amount of weight loss
CCC(CC)COC(=O)[C@H](C)N[P@](=O)(OC[C@H]1O[C@@](C#N)(c2ccc3c(N)ncnn23)[C@H](O)[C@@H]1O)Oc1ccccc1 [remdesivir] | 0.89 | –
